Common to all, as to type: cell-based
The target of experiment [1] is T1, claudin-1/Src complex in SW480claudin-1 cells (Homo sapiens, UniProt O95832).
T1 construct: claudin-1 was expressed in a non-metastatic CRC cell line, SW480 cells; expressed in transfected cells; host or cells: SW480 colorectal cancer cells expressing claudin-1 (SW480claudin-1)
T1 sequence (O95832 1-211): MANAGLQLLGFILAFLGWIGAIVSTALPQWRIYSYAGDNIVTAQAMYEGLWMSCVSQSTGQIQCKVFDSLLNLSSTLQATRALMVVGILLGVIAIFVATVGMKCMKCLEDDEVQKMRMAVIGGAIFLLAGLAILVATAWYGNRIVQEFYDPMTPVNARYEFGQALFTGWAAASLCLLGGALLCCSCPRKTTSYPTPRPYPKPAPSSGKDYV
As to the kind of experiment: Claudin-1/Src association (proximity ligation assay, Co-IP). The conditions noted are these: PLA, Co-IP or immuno-precipitation. An excerpt:
The CSC cells contribute to the generation of metastasis (16-19), and key CSC characteristics are highly relevant to metastasis, including invasive motility, and, resistance to apoptosis (20,21). […] Considering that chemoresistance is central to the CRC progression and metastasis, we further tested if adjuvant use of 16 with 5FU can have significant bearing upon these traits. Colon cancer cells were subjected to exogenous administration of 16 alone, or in combination with the 5-FU, the conventional anti-CRC drug. […] To further determine the mechanistic details the effect of 16 on association of claudin-1 and Src, SW480claudin-1 cells were treated with 16 or the vehicle and resultant cell lysate was subjected to Proximity ligation assay (PLA) or Co—IP.

Experiment [2] has as its system p-Src and c-PARP in SW480claudin-1 overexpressing cells. As to the kind of experiment: Expression of p-Src, Src and c-PARP. An excerpt: (§1) To this end, a library of molecules was synthesized in order to develop an initial SAR evaluation. The first compounds tested eliminated the acylated (thio) urea as well as the napthyl group and evaluated just the urea/phenyl compounds (Compounds 1-6). The methoxy group of the naphthalene ring system was needed when the benzimidazole group was present (16 vs. Compound 8). […] The result of metabolic stability was expressed as the percentage of drug remaining at each time. […] To further determine the effect of PDS-0330 on p-Src expression and association, cells were treated with Compound 1, 16 and PDS-0330. Expression and association with p-Src was unaffected with Compound 1 (negative control). The specificity of PDS-0330 for CLDN1 was further confirmed by treating SW480^CLDN1, HCT116^CLDN2 (overexpressing another tight junction protein) or normal IEC-6 cells with PDS-0330 (FIG. 12).
Furthermore, DLD-1 chemoresistant cells were treated with PDS-0330 and I-6. […] Based on the in vitro activity and metabolic stability, PDS-0330, and any potential new analogs will be evaluated in animal models to determine the pharmacokinetic properties and biodistribution as described in preliminary data.

Experiment [3] has as its system SW480claudin-1 cells. As to the kind of experiment: Resistance to anoikis in claudin-1 overexpressing cells. The conditions noted are these: 72 h treatment.
From the text: The crystal structure of claudin-1 is unknown. Therefore, an in-silico protein folding program, YASARA, was used to identify an effective claudin-1 inhibitor. The resultant 3D-structure was then modeled using Molegro Virtual Docker (MVD) software program. These in-silico analyses identified putative cavities in the claudin-1 protein that can be targeted by small molecule inhibitors. Next, a 100K library of small molecules was screened in silico using the MVD. The top 10 inhibitors that bound to the Site #3 (targeting near c-terminal domain; the most accessible pocket; FIG. 2A) with the best binding energies were selected as hits and used for further testing. Screening of these inhibitors named Inihibitor-1 (1-1) to Inhibitor-10 (I-10) was done using SW480claudin-1, SW620 and control cells. Claudin-1 deficient HCT116 cells (WT-APC) or SW620shRNAcld-1 were used as negative controls. Resistance to anoikis and cell invasion was used as biological end-points in testing these inhibitors. […] 16 has the following structure:
as §1

The values below come from patent publication US20250009716A1, “NOVEL INHIBITORS OF CLAUDIN-1 FOR THERAPEUTIC INTERVENTIONS” (BOARD OF REGENTS OF THE UNIVERSITY OF NEBRASKA, priority 2021, published 2025).

On to `COc1ccccc1NC(=O)Nc1ccc(-c2nc3ccccc3[nH]2)cc1` [Compound 1], for which the “claudin-1/Src (p-Src) association” value in experiment [1] is “unaffected”. For the same molecule, the p-Src expression entry in experiment [2] is given as “unaffected”. For the same molecule, in experiment [3], the “effect on resistance to anoikis” value is “not much change”.
